US12590338B2, “Method and device for detection of ampicillin-resistant non-typhoidal Salmonella” (priority 2018, dated 2026)

Test system: NTS clinical isolates
Experiment: Antibiotics susceptibility test to ampicillin (CLSI disc inhibition zone and/or MIC); note: key: R = Resistant to ampicillin; S = Susceptible to ampicillin
Format: cell-based, non-typhoidal Salmonella
Protocol: Before the NGS study, the antimicrobial susceptibility to ampicillin in the 169 isolates was re-confirmed using the disc inhibition zones or MICs (FIG. 1). Then, the bacterial DNAs were extracted from 53 NTS isolates and NGS was performed using the Illumina© MiSeq sequencer. Subsequently, the NTS serotypes of 53 NTS clinical isolates were confirmed by multilocus sequence typing (MLST) as shown in Table 1. The big genomic data were analyzed to examine presence of plasmid-mediated genes or genetic mutations in the bacterial genome of Salmonella spp. and other bacteria reported in the PubMed, ARG-ANNOT, CARD, and ResFinder (FIG. 1).
The 169 NTS clinical isolates were tested for antimicrobial susceptibility based on (CLSI) guidelines. Briefly, bacteria were spread onto Mueller-Hinton MH agar, and co-incubated with antimicrobial disks (Oxoid, Cambridge, UK) of ampicillin individually at 37° C. for 18 hours. Another alternative is measurement of the minimum inhibitory concentrations (MICs) of ampicillin in serial dilutions of ampicillin co-cultured with bacterial solution of NTS isolates. Finally, the resistance to ampicillin in NTS isolates was determined according to the diameter of inhibition zone (≤13 mm) and/or the MIC of ampicillin>16 μg/mL according to the guideline of CLSI.

`CC1(C)S[C@@H]2[C@H](NC(=O)[C@H](N)c3ccccc3)C(=O)N2[C@H]1C(=O)O` [ampicillin] was tested, and the AMP-R (NTS isolate SH-12, serotype Amsterdam) was “S”, the AMP-R (NTS isolate SH-A1, serotype Enteritidis) was “S” and the AMP-R (NTS isolate SH-B2, serotype Enteritidis) was “R”. The AMP-R (NTS isolate SH-B5, serotype Enteritidis) was “R”, the AMP-R (NTS isolate SH-C2, serotype Newport) was “S” and the AMP-R (NTS isolate SH-C3, serotype Enteritidis) was “S”. The AMP-R (NTS isolate SH-C4, serotype Typhimurium) was “R”, the AMP-R (NTS isolate SH-D2, serotype Enteritidis) was “S” and the AMP-R (NTS isolate SH-D4, serotype Enteritidis) was “S”. For the same compound, the AMP-R (NTS isolate SH-D5, serotype Typhimurium) was “S”, the AMP-R (NTS isolate SH-E1, serotype Unknown) was “R” and the AMP-R (NTS isolate SH-E2, serotype Virchow) was “S”. The AMP-R (NTS isolate SH-E3, serotype Newport) was “S”, the AMP-R (NTS isolate SH-F4, serotype Typhimurium) was “R” and the AMP-R (NTS isolate SH-F5, serotype Enteritidis) was “R”. The AMP-R (NTS isolate SH-G1, serotype Stanley) was “S”, the AMP-R (NTS isolate SH-G2, serotype Typhimurium) was “R” and the AMP-R (NTS isolate SH-G3, serotype Enteritidis) was “R”. For the same compound, the AMP-R (NTS isolate SH-G5, serotype Albany) was “R”, the AMP-R (NTS isolate SH-H3, serotype Derby) was “S” and the AMP-R (NTS isolate SH-H4, serotype Newport) was “R”. The AMP-R (NTS isolate TSAR-C1, serotype Schwarzengrund) was “R”, the AMP-R (NTS isolate TSAR-C2, serotype Schwarzengrund) was “R” and the AMP-R (NTS isolate TSAR-C3, serotype Schwarzengrund) was “R”. The AMP-R (NTS isolate TSAR-C4, serotype Typhimurium) was “R”, the AMP-R (NTS isolate TSAR-C5, serotype Choleraesuis) was “R” and the AMP-R (NTS isolate TSAR-C6, serotype Typhimurium) was “R”. For the same compound, the AMP-R (NTS isolate TSAR-C7, serotype Typhimurium) was “R”, the AMP-R (NTS isolate TSAR-C10, serotype Enteritidis) was “R” and the AMP-R (NTS isolate TSAR-C13, serotype Stanley) was “R”. The AMP-R (NTS isolate TSAR-C16, serotype Typhimurium) was “R”, the AMP-R (NTS isolate TSAR-C19, serotype Stanley) was “R” and the AMP-R (NTS isolate TSAR-E5, serotype Choleraesuis) was “R”. For the same compound, the AMP-R (NTS isolate TSAR-E9, serotype Choleraesuis) was “R”, the AMP-R (NTS isolate TSAR-E10, serotype Typhimurium) was “R” and the AMP-R (NTS isolate TSAR-E16, serotype Virchow) was “R”. For the same compound, the AMP-R (NTS isolate TSAR-E18, serotype Meleagridis) was “R”, the AMP-R (NTS isolate TSAR-E19, serotype Newport) was “R” and the AMP-R (NTS isolate TSAR-E20, serotype Typhimurium) was “R”. For the same compound, the AMP-R (NTS isolate TSAR-N5, serotype Typhimurium) was “R”, the AMP-R (NTS isolate TSAR-N8, serotype Typhimurium) was “R” and the AMP-R (NTS isolate TSAR-N9, serotype Montevideo) was “R”. The AMP-R (NTS isolate TSAR-N15, serotype Schwarzengrund) was “R”, the AMP-R (NTS isolate TSAR-N16, serotype Agona) was “R” and the AMP-R (NTS isolate TSAR-N19, serotype Enteritidis) was “R”. The AMP-R (NTS isolate TSAR-S13, serotype Albany) was “R”, the AMP-R (NTS isolate TSAR-S14, serotype Typhimurium) was “R” and the AMP-R (NTS isolate TSAR-S15, serotype Enteritidis) was “R”. The AMP-R (NTS isolate TSAR-S16, serotype Agona) was “R”, the AMP-R (NTS isolate TSAR-S17, serotype Newport) was “R” and the AMP-R (NTS isolate TSAR-S18, serotype Newport) was “R”. The AMP-R (NTS isolate TSAR-S19, serotype Agona) was “R” and the AMP-R (NTS isolate TSAR-S20, serotype Livingstone) was “R”.
